Laboratory results: patent US6893846B2, “Primers for use in detecting beta-lactamases” (priority 1998, dated 2005)
Converted amounts (≈) assume the structure as drawn. Read-outs that look alike come from different tables or passages of the source.

Assays:
[1] = tested on: K. pneumoniae 225; experiment: NCCLS disk diffusion assay; type: cell-based, Klebsiella pneumoniae; conditions: Kleb 225; for Zone Size: disk diffusion
[2] = tested on: E. aerogenes; experiment: Disk diffusion susceptibility test; type: cell-based, Enterobacter aerogenes; conditions: all the E. aerogenes strains
Description: (§1) Antibiotic susceptibilities were determined by standard disk-diffusion (NCCLS Standard M2-A6) and agar-dilution (NCCLS Standard M7-A4) procedures. Disks were obtained from Becton Dickinson Microbiology Systems (Cockeysville, Md.). Disk-diffusion susceptibilities to the following antibiotics were determined, ampicillin; amoxicillin clavulanic acid; aztreonam; cefazolin; cefoxitin; cefuroxime; cefotaxime; ceftriaxone; ceftazidime; cefepime; imipenem; gentamicin; trimethoprim/sulfamethoxazole and ciprofloxacin. […] The following quality control strains were run simultaneously with the test organisms Escherichia coli ATCC 25922, Pseudomonas aeruginosa ATCC 27853, and E. coli ATCC 35218. Throughout this study, results were interpreted using NCCLS criteria for disk diffusion (NCCLS M2-A6) and broth dilution (NCCLS M7-A4).

[3] = tested on: E. coli HB101 transformant (17 kb plasmid); conditions: disk diffusion, Tr (17 kb) = transformant E. coli HB101
[4] = tested on: E. coli C600 transconjugant; conditions: disk diffusion, Tc = transconjugate E. coli C600
[5] = tested on: K. pneumoniae 225; experiment: MicroScan Walkaway microdilution susceptibility test; type: cell-based, Klebsiella pneumoniae; conditions: for MIC: Klebsiella pneumoniae, 225, read-out: MicroScan MIC; for MicroScan susceptibility result: K. pneumoniae 225
[6] = tested on: K. pneumoniae 225; experiment: NCCLS microdilution susceptibility test; type: cell-based, Klebsiella pneumoniae
[7] = tested on: K. pneumoniae; experiment: Agar dilution MIC, South African isolates; type: cell-based, Klebsiella pneumoniae; conditions: tzp with tazobactam 4 μg/ml
Excerpt: (§2) The strains were provided in response to a request for all strains of Enterobacteriaceae, lacking inducible beta-lactamases, that were intermediate or resistant to cefotaxime or ceftazidime. […]

[8] = tested on: E. aerogenes; type: cell-based, Enterobacter aerogenes
Description: Antibiotic susceptibilities were determined by standard disk-diffusion (NCCLS Standard M2-A6) and agar-dilution (NCCLS Standard M7-A4) procedures. Disks were obtained from Becton Dickinson Microbiology Systems (Cockeysville, Md.). […] Throughout this study, results were interpreted using NCCLS criteria for disk diffusion (NCCLS M2-A6) and broth dilution (NCCLS M7-A4).

[9] = tested on: P. mirabilis; experiment: Agar dilution MIC, South African isolates; type: cell-based, Proteus mirabilis; conditions: 4 strains, tzp with tazobactam 4 μg/ml
Excerpt: During a period of three months in 1993, […] strains of Klebsiella pneumoniae (13 blood, 5 burn, 7 wound, 11 tracheal isolates), 4 strains of Proteus mirabilis (all wound isolates) and 4 strains of Escherichia coli (1 blood, 1 burn, 2 wound isolates) were collected from patients at the following medical centers in South Africa: Tygerberg Hospital near Cape Town, King Edward VIII Hospital in Durban, Chris Hani Baragwanath Hospital in Soweto and Pretoria Academic Hospital in Pretoria. The strains were provided in response to a request for all strains of Enterobacteriaceae, lacking inducible beta-lactamases, that were intermediate or resistant to cefotaxime or ceftazidime. […] Therefore accurate prevalence data were not obtained.
Antibiotic susceptibility was determined by standard disk diffusion (NCCLS Standard M2-T4, 1994) and agar dilution (NCCLS Standard M7-T2, 1994) procedures. Standard powders of antimicrobial agents were kindly provided by the following companies: piperacillin and tazobactam (Lederle Laboratories, Wayne, N.J.); cefoxitin and imipenem, (Merck, Rathway, N.J.); cefotaxime, (Hoechst-Roussel Pharmaceuticals Inc., Somerville, N.J.); ceftazidime, (Glaxo Group Research Ltd., Greenford, England); aztreonam and cefepime, (Bristol-Myers Squibb, Princeton, N.J.). Disks for agar diffusion were obtained from Becton Dickinson Microbiology Systems (Cockeysville, Md.). For quality control purposes, the following quality control strains were run simultaneously with the test organisms E. coli ATCC 25922, Pseudomonas aeruginosa ATCC 27853, E. coli ATCC 35218, and Staphylococcus aureus ATCC 29213. Throughout this study, results were interpreted using NCCLS criteria for disk diffusion (NCCLS Standard M2-T4, 1994) and broth dilution (NCCLS Standard M7-T2, 1994).

[10] = tested on: E. coli; experiment: Agar dilution MIC, South African isolates; type: cell-based, Escherichia coli; conditions: tzp with tazobactam 4 μg/ml
Excerpt: as §2

[11] = tested on: E. coli C600N transconjugants; experiment: Susceptibility of transconjugants; type: cell-based, Escherichia coli; conditions: E. coli C600N transconjugants of E. aerogenes 187, 200, 220, 184
Description: as §1
[…]. The filter paper mating technique with overnight incubation at 37° C. were performed as described previously (Philippon et al., Antimicrob. Agents Chemother., 33:1131-1136 (1989)). Transconjugants were selected on LB (Luria Bertani) agar [Difco (Detroit, Mich.)] plates containing 12 μg per ml nalidixic acid and 20 μg per ml ampicillin.

[12] = resistance phenotype Kpn1, 8 strains
[13] = resistance phenotype Kpn3 (K. pneumoniae Pit 68), 1 strain
[14] = 1 E. aerogenes strain with Bush group 1 and group 2be (SHV-3) enzymes
[15] = 1 E. aerogenes strain with Bush group 1 and group 2be (SHV-5) enzymes
[16] = 29 E. aerogenes strains with Bush group 1 and group 2be (SHV-4) enzymes
[17] = resistance phenotype Ec1, 3 strains
[18] = resistance phenotype Ec2, 1 strain

O=C(O)c1cn(C2CC2)c2cc(N3CCNCC3)c(F)cc2c1=O [ciprofloxacin]
Disk diffusion interpretation [1]: susceptible
Zone Size [1]: 22 mm
Disk diffusion susceptibility [2]: susceptible
Zone Size [3]: 31 mm
Zone Size [4]: 31 mm
MIC [5]: 2 µg/mL (≈ 6.04 µM)
MIC ([6]; Klebsiella pneumoniae, 225): 0.5 µg/mL (≈ 1.51 µM)

C[C@@H](O)[C@H]1C(=O)N2C(C(=O)O)=C(SCCN=CN)C[C@H]12 [imipenem]
Zone Size [1]: 22 mm
MIC range [7, 12]: 0.12 µg/mL
MIC range ([7]; resistance phenotype Kpn2, 28 strains): 0.12 to 1 µg/mL
MIC range [7, 13]: 0.12 µg/mL
MIC range [8, 14]: 0.5 µg/mL (≈ 1.67 µM)
MIC range [8, 15]: 1 µg/mL (≈ 3.34 µM)
MIC range [8, 16]: 0.5 µg/mL (≈ 1.67 µM)
Zone Size [3]: 33 mm
Zone Size [4]: 23 mm
MIC ([6]; Klebsiella pneumoniae, 225): 1 µg/mL (≈ 3.34 µM)
MIC range [9]: 0.5 to 1 µg/mL
MIC range [10, 17]: 0.12 µg/mL
MIC range [10, 18]: 0.12 µg/mL

C[C@H]1COc2c(N3CCN(C)CC3)c(F)cc3c(=O)c(C(=O)O)cn1c23 [levofloxacin]
MIC [5]: 2 µg/mL (≈ 5.53 µM)

C[C@@H](O)[C@H]1C(=O)N2C(C(=O)O)=C(S[C@@H]3CN[C@H](C(=O)N(C)C)C3)[C@H](C)[C@H]12 [meropenem]
MIC ([6]; Klebsiella pneumoniae, 225): 0.06 µg/mL (≈ 0.156 µM)

O=C1CN(/N=C/c2ccc([N+](=O)[O-])o2)C(=O)N1 [nitrofurantoin]
MIC [5]: > 64 µg/mL

CC1COc2c(N3CCN(C)CC3)c(F)cc3c(=O)c(C(=O)O)cn1c23 (centres unmarked) [ofloxacin]
MIC [5]: 2 µg/mL (≈ 5.53 µM)

CCN1CCN(C(=O)N[C@@H](C(=O)N[C@@H]2C(=O)N3[C@@H]2SC(C)(C)[C@@H]3C(=O)O)c2ccccc2)C(=O)C1=O [piperacillin]
MIC range [7, 13]: 64 µg/mL
MIC ([6]; Klebsiella pneumoniae, 225): > 64 µg/mL
MIC range [9]: 128 µg/mL
MIC range [10, 17]: >128 µg/mL
MIC range [10, 18]: >128 µg/mL

CC1(C)S[C@@H]2[C@H](NC(=O)[C@H](C(=O)O)c3ccsc3)C(=O)N2[C@H]1C(=O)O [ticarcillin]
MIC ([6]; Klebsiella pneumoniae, 225): > 64 µg/mL

NC[C@H]1O[C@H](O[C@H]2[C@H](O)[C@@H](O[C@H]3O[C@H](CO)[C@@H](O)[C@H](N)[C@H]3O)[C@H](N)C[C@@H]2N)[C@H](N)C[C@@H]1O [tobramycin]
MicroScan susceptibility result [5]: Resistant
MIC [5]: > 8 µg/mL

amoxicillin/clavulanate
Disk diffusion susceptibility [2]: resistant
MIC ([6]; NCCLS microdilution, Mueller-Hinton broth, K. pneumoniae 225): 64 µg/mL

gentamicin
Zone Size [1]: 8 mm
susceptibility after transfer of plasmids encoding SHV beta-lactamase genes [11]: resistance
MIC range [8, 14]: 8 µg/mL
MIC range [8, 15]: >128 µg/mL
MIC range [8, 16]: 1 to 16 µg/mL
Zone Size [3]: 25 mm
Zone Size [4]: 8 mm
MicroScan susceptibility result [5]: Resistant

piperacillin/tazobactam
Zone Size [1]: 15 mm
MIC range [7, 12]: 2 to 4 µg/mL
MIC range [7, 13]: 16 µg/mL
Zone Size [3]: 30 mm
Zone Size [4]: 14 mm
MIC range [9]: 0.25 to 0.5 µg/mL
MIC range [10, 17]: 1 µg/mL
MIC range [10, 18]: 32 µg/mL
